One assay concerns Male SD rats. The experiment in a line: Oral glucose tolerance test. The class given is in vivo, rat. Particulars: dosed 30 min prior to oGTT (glucose 2 g/kg po), blood glucose AUC t=0 to t=120 minutes vs vehicle. On the procedure:
Male SD rats (200-250 g) were housed 2 per cage in a temperature-controlled room with a 12-hour light/dark cycle. They were allowed ad libitum access to water and fed with normal rodent chow. The night before the oral glucose tolerance test (oGTT), the rats were transferred to clean cages and fasted overnight. On the morning of the oGTT, the rats were weighed and randomized into groups based on fasted blood glucose and body weight. Rats were dosed with vehicle (0.5% methocel) or compounds thirty min prior to the oGTT (glucose, 2 g/kg, po). Blood was collected from the tail vein at 0, 10, 30, 60 and 120 minutes after glucose challenge to measure blood glucose; plasma was used to determine insulin levels.

The next assay deals with human GPR40 (Homo sapiens (Human), UniProt O14842). The experiment in a line: GPR40 calcium flux assay, HEK293 cells stably expressing human GPR40. In kind it is cell-based. Particulars: transfected HEK293 cells stably expressing human GPR40; individual determinations listed; read-out: hGPR40 Ca2+ Assay EC50. On the procedure: (§1) Compounds were tested in a calcium flux assay using transfected HEK293 cells stably expressing either human GPR40 or rat GPR40. Human GPR40 expressing cells were cultured in DMEM-High Glucose media supplemented with 10% fetal bovine serum, 1×L-Glutamine, 1× Penicillin/Streptomycin and 500 μg/mL G418. Rat GPR40 expressing cells were cultured in DMEM-High Glucose media supplemented with 10% fetal bovine serum and 1 μg/mL puromycin. Cells were plated into poly-D-lysine coated 384-well plates and cultured overnight in a 37° C. humidified tissue culture incubator under 5% CO2/90% O2 atmosphere. On the day of the experiment, the culture media was replaced with assay buffer (HBSS, 20 mM HEPES, 0.1% BSA) and the cells incubated at 37° C. for 1 h. Calcium-sensitive fluorescent dye (Fluo 8 No-Wash Calcium Dye, ABD Bioquest) was then added and the cells incubated for another 30 min at 37° C. followed by 15 min at room temperature while protected from the light. The cell plate and a plate of diluted compounds of Formula (I) were loaded into a fluorescent plate reader that added compounds onto the cells while measuring the fluorescence intensity of each well. The plate reader recorded fluorescence intensity at 1 second intervals for 8 min and provided the data for analysis in an Excel format. EC50 values were calculated using Prism (GraphPad) software.
A general note: Calcium flux is commonly read through the fluorescence of an indicator in the cells.

In a further assay the target is rat GPR40 (Rattus norvegicus (Rat), UniProt Q8K3T4). The experiment in a line: GPR40 calcium flux assay, HEK293 cells stably expressing rat GPR40. In kind it is cell-based. Particulars: transfected HEK293 cells stably expressing rat GPR40; individual determinations listed; read-out: rGPR40 Ca2+ Assay EC50. On the procedure: as §1

Where “and” joins values, the source holds several entries; their conditions need not be identical. Equal entries are not always repeated.

One may read the EC50 as the concentration at which the effect is half-maximal.

human GPR40, sequence (O14842 whole entry): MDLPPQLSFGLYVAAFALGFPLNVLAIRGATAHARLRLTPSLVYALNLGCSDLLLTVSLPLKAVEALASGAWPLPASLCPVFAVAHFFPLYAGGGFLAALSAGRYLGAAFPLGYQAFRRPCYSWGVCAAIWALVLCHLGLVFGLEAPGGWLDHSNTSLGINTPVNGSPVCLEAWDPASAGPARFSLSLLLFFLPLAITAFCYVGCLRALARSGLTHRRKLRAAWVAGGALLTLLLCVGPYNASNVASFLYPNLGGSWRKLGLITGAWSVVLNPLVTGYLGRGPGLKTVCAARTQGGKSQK
rat GPR40, sequence (Q8K3T4 whole entry): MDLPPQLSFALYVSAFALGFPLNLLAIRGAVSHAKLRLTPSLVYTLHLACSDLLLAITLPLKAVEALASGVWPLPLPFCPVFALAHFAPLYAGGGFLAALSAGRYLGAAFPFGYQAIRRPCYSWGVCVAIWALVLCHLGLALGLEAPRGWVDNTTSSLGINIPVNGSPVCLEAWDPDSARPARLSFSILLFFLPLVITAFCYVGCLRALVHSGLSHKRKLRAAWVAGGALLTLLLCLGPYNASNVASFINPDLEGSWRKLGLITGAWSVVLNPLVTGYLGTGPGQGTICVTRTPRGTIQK

As for `COc1ccc(F)c(-c2ncc(COc3cccc([C@@H](CC(=O)O)C4CC4)c3)nc2C=C(C)C)c1` [Cpd 8, (3S)-3-cyclopropyl-3-[3-[[5-(2-fluoro-5-methoxy-phenyl)-6-(2-methylprop-1-enyl)pyrazin-2-yl]methoxy]phenyl]propanoic acid], the “Percent Lowering of Glucose (AUC compound vs. AUC Vehicle)” value (“Percent Lowering of Glucose” below) in the assay on Male SD rats was determined as 91%. In addition, the EC50 is 0.01 µM and 0.009 µM and 0.014 µM and 0.008 µM and 0.006 µM on human GPR40; 0.039 µM and 0.029 µM and 0.076 µM and 0.05 µM at rat GPR40.
`COc1cc(-c2ncc(COc3cccc([C@@H](CC(=O)O)C4CC4)c3)nc2CC(C)C)c(F)cn1` [Cpd 2, (3S)-3-cyclopropyl-3-[3-[[5-(5-fluoro-2-methoxy-4-pyridyl)-6-isobutyl-pyrazin-2-yl]methoxy]phenyl]propanoic acid]: the “Percent Lowering of Glucose” value with Male SD rats turned out to be 87%. In addition, the EC50 was 2 nM (2×) and 1 nM and 3 nM on human GPR40; 7 nM (2×) and 8 nM and 12 nM on rat GPR40.
As to `COc1ccc(F)c(-c2ncc(COc3cccc([C@@H](CC(=O)O)C4CC4)c3)nc2C(C)C(F)(F)F)c1` (stereo partly drawn) [Cpd 40, (3S)-3-cyclopropyl-3-[3-[[5-(2-fluoro-5-methoxy-phenyl)-6-(2,2,2-trifluoro-1-methyl-ethyl)pyrazin-2-yl]methoxy]phenyl]propanoic acid], the EC50 on human GPR40 is 0.064 µM and 0.052 µM; on rat GPR40, 0.253 µM and 0.249 µM and 0.236 µM and 0.227 µM.
As to `CCCCc1nc(COc2cccc([C@@H](CC(=O)O)C3CC3)c2)cnc1-c1cc(OC)ccc1F` [Cpd 3, (3S)-3-[3-[[6-butyl-5-(2-fluoro-5-methoxy-phenyl)pyrazin-2-yl]methoxy]phenyl]-3-cyclopropyl-propanoic acid], the EC50 on human GPR40 is 0.003 µM and 0.002 µM; at rat GPR40, 0.033 µM and 0.026 µM.
`COc1ccc(F)c(-c2ncc(COc3cccc([C@@H](CC(=O)O)C4CC4)c3)nc2N2CCCCC2)c1` [Cpd 22, (3S)-3-cyclopropyl-3-[3-[[5-(2-fluoro-5-methoxy-phenyl)-6-(1-piperidyl)pyrazin-2-yl]methoxy]phenyl]propanoic acid]: the EC50 is 0.018 µM and 0.012 µM on human GPR40; 0.053 µM and 0.046 µM and 0.043 µM and 0.031 µM on rat GPR40.
Take `COc1ccc(F)c(-c2ncc(COc3cccc([C@@H](CC(=O)O)C4CC4)c3)nc2N2CCOCC2)c1` [Cpd 45, (3S)-3-cyclopropyl-3-[3-[[5-(2-fluoro-5-methoxy-phenyl)-6-morpholinopyrazin-2-yl]methoxy]phenyl]propanoic acid]: the EC50 is 0.034 µM at human GPR40; 0.138 µM and 0.134 µM on rat GPR40.
With `COc1cc(-c2ncc(COc3cccc([C@@H](CC(=O)O)C4CC4)c3)nc2OC2CCCCC2)c(F)cn1` [Cpd 9, (3S)-3-[3-[[6-(cyclohexoxy)-5-(5-fluoro-2-methoxy-4-pyridyl)pyrazin-2-yl]methoxy]phenyl]-3-cyclopropyl-propanoic acid], the EC50 at human GPR40 is 0.007 µM; on rat GPR40 it was 0.02 µM and 0.016 µM.
Regarding `COc1cc(-c2ncc(COc3cccc([C@@H](CC(=O)O)C4CC4)c3)nc2C2=CCCC2(C)C)ccn1` [Cpd 31, (3S)-3-cyclopropyl-3-[3-[[6-(5,5-dimethylcyclopenten-1-yl)-5-(2-methoxy-4-pyridyl)pyrazin-2-yl]methoxy]phenyl]propanoic acid], the EC50 was 0.032 µM and 0.026 µM on human GPR40; 0.102 µM and 0.066 µM at rat GPR40.
Turning to `COc1ccc(F)c(-c2ncc(COc3cccc([C@@H](CC(=O)O)C4CC4)c3)nc2N(C)C(C)C)c1` [Cpd 34, (3S)-3-cyclopropyl-3-[3-[[5-(2-fluoro-5-methoxy-phenyl)-6-[isopropyl(methyl)amino]pyrazin-2-yl]methoxy]phenyl]propanoic acid], the EC50 was 0.033 µM and 0.03 µM at human GPR40; 0.112 µM and 0.104 µM and 0.088 µM and 0.086 µM on rat GPR40.
Consider `COc1ccc(F)c(-c2ncc(COc3cccc([C@@H](CC(=O)O)C4CC4)c3)nc2C(C)C)c1` [Cpd 37, (3S)-3-cyclopropyl-3-[3-[[5-(2-fluoro-5-methoxy-phenyl)-6-isopropyl-pyrazin-2-yl]methoxy]phenyl]propanoic acid], for which the half-maximal effective concentration (EC50) on human GPR40 is 0.045 µM and 0.044 µM; on rat GPR40, 0.141 µM and 0.109 µM.
For the compound `COc1ccc(F)c(-c2ncc(COc3cccc([C@@H](CC(=O)O)C4CC4)c3)nc2CC(C)(C)C)c1` [Cpd 1, (3S)-3-cyclopropyl-3-[3-[[6-(2,2-dimethylpropyl)-5-(2-fluoro-5-methoxy-phenyl)pyrazin-2-yl]methoxy]phenyl]propanoic acid], the EC50 on human GPR40 was 0.002 µM; on rat GPR40 it was 0.039 µM and 0.025 µM.
For `COc1ccc(F)c(-c2ncc(COc3cccc([C@@H](CC(=O)O)C4CC4)c3)nc2OCC2CC(C)(C)C2)c1` [Cpd 42, (3S)-3-cyclopropyl-3-[3-[[6-[(3,3-dimethylcyclobutyl)methoxy]-5-(2-fluoro-5-methoxy-phenyl)pyrazin-2-yl]methoxy]phenyl]propanoic acid], the EC50 at human GPR40 is 0.017 µM and 0.014 µM; at rat GPR40 it was 0.032 µM and 0.029 µM.
`COc1ccc(F)c(-c2ncc(COc3cccc([C@@H](CC(=O)O)C4CC4)c3)nc2N2CC3(CCC3)C2)c1` [Cpd 6, (3S)-3-[3-[(6-[2-azaspiro[3.3]heptan-2-yl]-5-(2-fluoro-5-methoxyphenyl)pyrazin-2-yl)methoxy]phenyl]-3-cyclopropylpropanoic acid]: the EC50 at human GPR40 was 0.005 µM and 0.004 µM; at rat GPR40, 0.017 µM and 0.014 µM.
In the case of `COc1ccc(F)c(-c2ncc(COc3cccc([C@@H](CC(=O)O)C4CC4)c3)nc2C2=CCCC2(C)C)c1` [Cpd 30, (3S)-3-cyclopropyl-3-[3-[[6-(5,5-dimethylcyclopenten-1-yl)-5-(2-fluoro-5-methoxy-phenyl)pyrazin-2-yl]methoxy]phenyl]propanoic acid], the “Percent Lowering of Glucose” value in the assay on Male SD rats is listed as 87%.
For `COc1ccc(F)c(-c2ncc(COc3cccc([C@@H](CC(=O)O)C4CC4)c3)nc2-c2ccc(C(C)C)cc2)c1` [Cpd 25, (3S)-3-cyclopropyl-3-[3-[[5-(2-fluoro-5-methoxy-phenyl)-6-(4-isopropylphenyl)pyrazin-2-yl]methoxy]phenyl]propanoic acid], the EC50 on human GPR40 is 0.023 µM and 0.018 µM; at rat GPR40 it was 0.045 µM and 0.04 µM.
As to `COc1cc(-c2ncc(COc3cccc([C@@H](CC(=O)O)C4CC4)c3)nc2OCC2CC2)c(F)cn1` [Cpd 48, (3S)-3-cyclopropyl-3-[3-[[6-(cyclopropylmethoxy)-5-(5-fluoro-2-methoxy-4-pyridyl)pyrazin-2-yl]methoxy]phenyl]propanoic acid], the EC50 is 0.035 µM and 0.032 µM at human GPR40; 0.138 µM and 0.152 µM at rat GPR40.
Regarding `COc1ccc(F)c(-c2ncc(COc3cccc([C@@H](CC(=O)O)C4CC4)c3)nc2OC2CCC2)c1` [Cpd 19, (3S)-3-[3-[[6-(cyclobutoxy)-5-(2-fluoro-5-methoxy-phenyl)pyrazin-2-yl]methoxy]phenyl]-3-cyclopropyl-propanoic acid], the EC50 on human GPR40 is 0.014 µM and 0.011 µM; on rat GPR40, 0.07 µM and 0.049 µM.
In the case of `COc1ccc(F)c(-c2ncc(COc3cccc([C@@H](CC(=O)O)C4CC4)c3)nc2OC2CC(C)(C)OC(C)(C)C2)c1` [Cpd 26, (3S)-3-cyclopropyl-3-[3-[[5-(2-fluoro-5-methoxy-phenyl)-6-(2,2,6,6-tetramethyltetrahydropyran-4-yl)oxy-pyrazin-2-yl]methoxy]phenyl]propanoic acid], the EC50 on human GPR40 is 0.021 µM; on rat GPR40, 0.111 µM and 0.108 µM.
In the case of `COc1ccc(F)c(-c2ncc(COc3cccc([C@@H](CC(=O)O)C4CC4)c3)nc2-c2cccc(C(C)C)c2)c1` [Cpd 23, (3S)-3-cyclopropyl-3-[3-[[5-(2-fluoro-5-methoxy-phenyl)-6-(3-isopropylphenyl)pyrazin-2-yl]methoxy]phenyl]propanoic acid], the EC50 on human GPR40 was 0.023 µM and 0.014 µM; at rat GPR40 it was 0.058 µM and 0.05 µM.
Consider `COc1cccc(-c2ncc(COc3cccc([C@@H](CC(=O)O)C4CC4)c3)nc2C2=CCCC2(C)C)c1F` [Cpd 46, (3S)-3-cyclopropyl-3-[3-[[6-(5,5-dimethylcyclopenten-1-yl)-5-(2-fluoro-3-methoxy-phenyl)pyrazin-2-yl]methoxy]phenyl]propanoic acid], for which the EC50 at human GPR40 was 0.13 µM and 0.127 µM; at rat GPR40, 0.637 µM and 0.788 µM.
Regarding `COc1ccc(F)c(-c2ncc(COc3cccc([C@@H](CC(=O)O)C4CC4)c3)nc2CC(C)C)c1` [Cpd 5, (3S)-3-cyclopropyl-3-[3-[[5-(2-fluoro-5-methoxy-phenyl)-6-isobutyl-pyrazin-2-yl]methoxy]phenyl]propanoic acid], the EC50 on human GPR40 is 0.003 µM and 0.002 µM; on rat GPR40, 0.012 µM and 0.01 µM.
For the compound `COc1ccc(F)c(-c2ncc(COc3cccc([C@@H](CC(=O)O)C4CC4)c3)nc2OCC2CC2)c1` [Cpd 21, (3S)-3-cyclopropyl-3-[3-[[6-(cyclopropylmethoxy)-5-(2-fluoro-5-methoxy-phenyl)pyrazin-2-yl]methoxy]phenyl]propanoic acid], the EC50 at human GPR40 was 0.017 µM and 0.012 µM; on rat GPR40 it was 0.065 µM and 0.057 µM.

Values taken from patent publication US9688642B2, “Substituted pyrazines as GPR40 agonists” (Janssen Pharmaceutica NV, priority 2014, dated 2017).
